Patent publication US7160881B2, “Crystalline modifications of 2-(3,5-bis-trifluoromethyl-phenyl)-N-[6-(1,1-dioxo-1 λ6-thiomorpholin-4-yl)-4-(4-fluoro-2-methyl-phenyl)-pyridin-3-yl]-N-methyl-isobutyramide” (Hoffmann-La Roche Inc., priority 2003, dated 2007)
Like-named read-outs stand apart in the source and are kept apart here. Blank lines part the entries; values can stand above or below the compound they belong to.

Key:
[1] = Pharmacokinetics after single oral administration to fed male beagle dogs (plasma concentrations by LC-MS, non-compartmental analysis); type: in vivo; conditions: for bioavailability (general statement of the description): A: formulations compared with those of B or C modification, amorphous: in microsuspension form; for AUC(0-t): read-out: AUC(0–24 h); for concentration at 24 h: read-out: C(24 h)
Protocol: Four male beagle dogs (age 5 to 6 years, body weight 11 to 14 kg) received single oral doses of 2 mg/kg of 2-(3,5-bis-trifluoromethyl-phenyl)-N-[6-(1,1-dioxo-1λ^6-thiomorpholin-4-yl)-4-(4-fluoro-2-methyl-phenyl)-pyridin-3-yl]-N-methyl-isobutyramide form A and form B (cross-over study design). The formulation was a granulate of the finely milled compound with 20% sodium dodecyl sulfate (SDS) in gelatine capsules.
In addition, four male beagle dogs (age 4 to 7 years, body weight 11 to 14 kg) received a single oral dose of 2 mg/kg of 2-(3,5-bis-trifluoromethyl-phenyl)-N-[6-(1,1-dioxo-1λ^6-thiomorpholin-4-yl)-4-(4-fluoro-2-methyl-phenyl)-pyridin-3-yl]-N-methyl-isobutyramide form C as finely milled compound with 10% SDS in gelatine capsules. The dogs received 200 g commercial dog chow (Pal®, approx. 7% fat content) about 30 minutes before administration of the compound.
Two dogs (age 8 years, body weight 12 to 14 kg) received 5 mg/kg of 2-(3,5-bis-trifluoromethyl-phenyl)-N-[6-(1,1-dioxo-1λ^6-thiomorpholin-4-yl)-4-(4-fluoro-2-methyl-phenyl)-pyridin-3-yl]-N-methyl-isobutyramide as amorphous material orally by gavage as microsuspension. The dogs were fed before and during the experiment.
Plasma samples were drawn at several time points. 2-(3,5-bis-Trifluoromethyl-phenyl)-N-[6-(1,1-dioxo-1λ^6-thiomorpholin-4-yl)-4-(4-fluoro-2-methyl-phenyl)-pyridin-3-yl]-N-methyl-isobutyramide plasma concentrations were determined using a selective LC-MS method with a quantification limit of 10 ng/mL. Pharmacokinetic parameters (e.g. AUC, Cmax) were estimated by non-compartmental analysis using WinNonlin 3.1®.

[2] = Dynamic Vapor Sorption (DVS); type: physicochemical; conditions: from 0 to 90% RH
From the text: Dynamic Vapor Sorption (DVS)

[3] = dog Charly, single oral 2 mg/kg, fed male beagle dog, cross-over, granulate with 20% SDS in gelatine capsules, 2 mg/kg
[4] = dog Lars, single oral 2 mg/kg, fed male beagle dog, cross-over, granulate with 20% SDS in gelatine capsules, 2 mg/kg
[5] = dog Lupo, single oral 2 mg/kg, fed male beagle dog, cross-over, granulate with 20% SDS in gelatine capsules, 2 mg/kg
[6] = dog Mickey, single oral 2 mg/kg, fed male beagle dog, cross-over, granulate with 20% SDS in gelatine capsules, 2 mg/kg
[7] = male, beagle, dog, plasma, po, 2 mg/kg, dog Lars, single oral 2 mg/kg, fed male beagle dog, cross-over, granulate with 20% SDS in gelatine capsules
[8] = male, beagle, dog, plasma, po, 2 mg/kg, mean, n=4, single oral 2 mg/kg, fed male beagle dogs, cross-over, granulate with 20% SDS in gelatine capsules
[9] = mean, n=4, single oral 2 mg/kg, fed male beagle dogs, cross-over, granulate with 20% SDS in gelatine capsules, 2 mg/kg
[10] = single oral 2 mg/kg, fed male beagle dogs, cross-over
[11] = beagle, dog, plasma, po, 5 mg/kg, mean, n=2, single oral 5 mg/kg by gavage as microsuspension, fed dogs
[12] = male, beagle, dog, plasma, po, 2 mg/kg, mean, n=4, single oral 2 mg/kg, fed male beagle dogs, finely milled compound with 10% SDS in gelatine capsules
[13] = single oral 2 mg/kg, fed male beagle dogs

- bioavailability (general statement of the description) [1]: improved bioavailability
- bioavailability among the three crystalline polymorphs A, B, and C ([1]; beagle dogs, powder in gelatine capsules containing sodium dodecyl sulfate): highest bioavailability
- AUC(0–24 h) [1, 3]: 3720 ng·h/mL
- C(24 h) [1, 3]: 47.6 ng/mL
- Cmax [1, 3]: 391 ng/mL
- F [1, 3]: 24.5%
- F [1, 4]: 18.2%
- AUC(0–24 h) [1, 5]: 2490 ng·h/mL
- F [1, 5]: 16.2%
- AUC(0–24 h) [1, 6]: 2900 ng·h/mL
- F [1, 6]: 17.4%
- AUC(0-t) [1, 7]: 2520 ng·h/mL
- concentration at 24 h [1, 7]: 28.2 ng/mL
- Cmax ([1]; male, beagle, dog, plasma, po, 2 mg/kg, dog Lars, single oral 2 mg/kg, fed male beagle dog, cross-over, granulate with 20% SDS in gelatine capsules, read-out: Cmax): 744 ng/mL
- concentration at 24 h ([1]; male, beagle, dog, plasma, po, 2 mg/kg, dog Lupo, single oral 2 mg/kg, fed male beagle dog, cross-over, granulate with 20% SDS in gelatine capsules): 40.3 ng/mL
- Cmax ([1]; male, beagle, dog, plasma, po, 2 mg/kg, dog Lupo, single oral 2 mg/kg, fed male beagle dog, cross-over, granulate with 20% SDS in gelatine capsules, read-out: Cmax): 424 ng/mL
- concentration at 24 h ([1]; male, beagle, dog, plasma, po, 2 mg/kg, dog Mickey, single oral 2 mg/kg, fed male beagle dog, cross-over, granulate with 20% SDS in gelatine capsules): 29.8 ng/mL
- Cmax ([1]; male, beagle, dog, plasma, po, 2 mg/kg, dog Mickey, single oral 2 mg/kg, fed male beagle dog, cross-over, granulate with 20% SDS in gelatine capsules, read-out: Cmax): 496 ng/mL
- AUC(0-t) [1, 8]: 2910 ng·h/mL
- concentration at 24 h [1, 8]: 36.5 ng/mL
- Cmax ([1]; male, beagle, dog, plasma, po, 2 mg/kg, mean, n=4, single oral 2 mg/kg, fed male beagle dogs, cross-over, granulate with 20% SDS in gelatine capsules, read-out: Cmax): 514 ng/mL
- F [1, 9]: 19.1%
- Mean Cmax, higher after form A as compared to form B [1, 10]: 1.7 fold
- Mean oral bioavailability, higher after form A as compared to form B [1, 10]: 1.9 fold
- reversible uptake of water (DVS) ([2]; listed as modification A): 3.1 %-w/w
SMILES: Cc1cc(F)ccc1-c1cc(N2CCS(=O)(=O)CC2)ncc1N(C)C(=O)C(C)(C)c1cc(C(F)(F)F)cc(C(F)(F)F)c1 [Form A, 2-(3,5-bis-trifluoromethyl-phenyl)-N-[6-(1,1-dioxo-1λ^6-thiomorpholin-4-yl)-4-(4-fluoro-2-methyl-phenyl)-pyridin-3-yl]-N-methyl-isobutyramide]

- bioavailability (general statement of the description) [1]: improved bioavailability
- exposure after oral administration (ranking of forms) ([1]; beagle dogs, amorphous as microsuspension): highest
- concentration at 24 h ([1]; beagle, dog, plasma, oral, 5 mg/kg, mean, n=2, 5 mg/kg oral microsuspension, values normalized to 2 mg/kg): 49.2 ng/mL
- AUC(0-t) ([1]; beagle, dog, plasma, po, 5 mg/kg, mean, n=2, 5 mg/kg oral microsuspension, values normalized to 2 mg/kg): 4160 ng·h/mL
- Cmax ([1]; beagle, dog, plasma, po, 5 mg/kg, mean, n=2, 5 mg/kg oral microsuspension, values normalized to 2 mg/kg, read-out: Cmax): 1220 ng/mL
- AUC(0-t) [1, 11]: 10400 ng·h/mL
- concentration at 24 h [1, 11]: 123 ng/mL
- Cmax ([1]; beagle, dog, plasma, po, 5 mg/kg, mean, n=2, single oral 5 mg/kg by gavage as microsuspension, fed dogs, read-out: Cmax): 3050 ng/mL
- F ([1]; mean, n=2, 5 mg/kg oral microsuspension, values normalized to 2 mg/kg): 24.5%
- reversible uptake of water (DVS) [2]: 0.8 %-w/w
SMILES: Cc1cc(F)ccc1-c1cc(N2CCS(=O)(=O)CC2)ncc1N(C)C(=O)C(C)(C)c1cc(C(F)(F)F)cc(C(F)(F)F)c1 [amorphous material, 2-(3,5-bis-trifluoromethyl-phenyl)-N-[6-(1,1-dioxo-1λ^6-thiomorpholin-4-yl)-4-(4-fluoro-2-methyl-phenyl)-pyridin-3-yl]-N-methyl-isobutyramide]

- melting point: 135 to 138 °C
SMILES: Cc1cc(F)ccc1-c1cc(N2CCS(=O)(=O)CC2)ncc1N(C)C(=O)C(C)(C)c1cc(C(F)(F)F)cc(C(F)(F)F)c1 [Example 7, 2-(3,5-Bis-trifluoromethyl-phenyl)-N-[6-(1,1-dioxo-1λ^6-thiomorpholin-4-yl)-4-(4-fluoro-2-methyl-phenyl)-pyridin-3-yl]-N-methyl-isobutyramide]

- AUC(0-t) [1, 12]: 2660 ng·h/mL
- concentration at 24 h [1, 12]: 29.2 ng/mL
- Cmax ([1]; male, beagle, dog, plasma, po, 2 mg/kg, mean, n=4, single oral 2 mg/kg, fed male beagle dogs, finely milled compound with 10% SDS in gelatine capsules, read-out: Cmax): 510 ng/mL
- F ([1]; mean, n=4, single oral 2 mg/kg, fed male beagle dogs, finely milled compound with 10% SDS in gelatine capsules): 13.3%
- mean AUC(0–24 h) compared with form A [1, 13]: approximately the same
- mean Cmax compared with form A [1, 13]: approximately the same
SMILES: Cc1cc(F)ccc1-c1cc(N2CCS(=O)(=O)CC2)ncc1N(C)C(=O)C(C)(C)c1cc(C(F)(F)F)cc(C(F)(F)F)c1 [Form C, 2-(3,5-bis-trifluoromethyl-phenyl)-N-[6-(1,1-dioxo-1λ^6-thiomorpholin-4-yl)-4-(4-fluoro-2-methyl-phenyl)-pyridin-3-yl]-N-methyl-isobutyramide]

- AUC(0–24 h) [1, 3]: 949 ng·h/mL
- C(24 h) [1, 3]: 17.7 ng/mL
- Cmax [1, 3]: 122 ng/mL
- F [1, 3]: 6.3%
- AUC(0–24 h) [1, 4]: 3880 ng·h/mL
- C(24 h) [1, 4]: 51.7 ng/mL
- Cmax [1, 4]: 631 ng/mL
- F [1, 4]: 21%
- AUC(0–24 h) [1, 5]: 1130 ng·h/mL
- C(24 h) [1, 5]: 23.2 ng/mL
- Cmax [1, 5]: 216 ng/mL
- F [1, 5]: 6.8%
- AUC(0–24 h) [1, 6]: 1330 ng·h/mL
- C(24 h) [1, 6]: 21.4 ng/mL
- Cmax [1, 6]: 251 ng/mL
- F [1, 6]: 8.2%
- AUC(0–24 h) [1, 9]: 1822 ng·h/mL
- C(24 h) [1, 9]: 28.5 ng/mL
- Cmax [1, 9]: 305 ng/mL
- F [1, 9]: 11.0%
SMILES: Cc1cc(F)ccc1-c1cc(N2CCS(=O)(=O)CC2)ncc1N(C)C(=O)C(C)(C)c1cc(C(F)(F)F)cc(C(F)(F)F)c1 [Form B, 2-(3,5-bis-trifluoromethyl-phenyl)-N-[6-(1,1-dioxo-1λ^6-thiomorpholin-4-yl)-4-(4-fluoro-2-methyl-phenyl)-pyridin-3-yl]-N-methyl-isobutyramide]
